“Also recorded” adds a separate entry of the source.
T1: MMP-1 (Homo sapiens, UniProt P03956)
T1 sequence (P03956 100-469): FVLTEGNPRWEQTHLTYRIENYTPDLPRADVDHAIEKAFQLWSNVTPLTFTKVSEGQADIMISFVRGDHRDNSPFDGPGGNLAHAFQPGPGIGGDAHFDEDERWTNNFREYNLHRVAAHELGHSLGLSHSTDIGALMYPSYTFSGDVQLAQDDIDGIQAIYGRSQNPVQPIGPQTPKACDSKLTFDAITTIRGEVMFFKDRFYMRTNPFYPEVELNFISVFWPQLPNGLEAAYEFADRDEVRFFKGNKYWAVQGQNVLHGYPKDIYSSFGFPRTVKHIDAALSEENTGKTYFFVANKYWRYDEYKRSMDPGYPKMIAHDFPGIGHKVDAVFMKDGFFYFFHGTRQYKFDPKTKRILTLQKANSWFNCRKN

T2: BMP-1 (Homo sapiens, UniProt P13497)
T2 sequence (P13497 121-730 isoform P13497-2 limits assumed): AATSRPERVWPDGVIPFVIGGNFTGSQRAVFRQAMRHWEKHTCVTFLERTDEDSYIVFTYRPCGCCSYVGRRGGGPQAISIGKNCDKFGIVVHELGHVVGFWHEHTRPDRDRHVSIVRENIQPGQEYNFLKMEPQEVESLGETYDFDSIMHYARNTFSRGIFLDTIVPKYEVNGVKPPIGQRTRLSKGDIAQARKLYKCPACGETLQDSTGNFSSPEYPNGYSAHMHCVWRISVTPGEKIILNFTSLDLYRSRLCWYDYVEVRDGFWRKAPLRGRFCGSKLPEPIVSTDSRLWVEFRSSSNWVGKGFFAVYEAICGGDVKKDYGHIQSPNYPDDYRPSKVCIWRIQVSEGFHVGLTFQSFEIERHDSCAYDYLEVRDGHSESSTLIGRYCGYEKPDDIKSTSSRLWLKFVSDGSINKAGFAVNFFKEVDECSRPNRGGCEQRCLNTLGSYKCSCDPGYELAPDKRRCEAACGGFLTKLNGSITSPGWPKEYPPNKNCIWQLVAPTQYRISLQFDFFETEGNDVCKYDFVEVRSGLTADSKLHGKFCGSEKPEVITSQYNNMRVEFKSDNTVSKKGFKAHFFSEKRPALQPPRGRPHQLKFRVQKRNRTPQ

T3: MMP-2 (Homo sapiens, UniProt P08253)
T3 sequence (P08253 110-660): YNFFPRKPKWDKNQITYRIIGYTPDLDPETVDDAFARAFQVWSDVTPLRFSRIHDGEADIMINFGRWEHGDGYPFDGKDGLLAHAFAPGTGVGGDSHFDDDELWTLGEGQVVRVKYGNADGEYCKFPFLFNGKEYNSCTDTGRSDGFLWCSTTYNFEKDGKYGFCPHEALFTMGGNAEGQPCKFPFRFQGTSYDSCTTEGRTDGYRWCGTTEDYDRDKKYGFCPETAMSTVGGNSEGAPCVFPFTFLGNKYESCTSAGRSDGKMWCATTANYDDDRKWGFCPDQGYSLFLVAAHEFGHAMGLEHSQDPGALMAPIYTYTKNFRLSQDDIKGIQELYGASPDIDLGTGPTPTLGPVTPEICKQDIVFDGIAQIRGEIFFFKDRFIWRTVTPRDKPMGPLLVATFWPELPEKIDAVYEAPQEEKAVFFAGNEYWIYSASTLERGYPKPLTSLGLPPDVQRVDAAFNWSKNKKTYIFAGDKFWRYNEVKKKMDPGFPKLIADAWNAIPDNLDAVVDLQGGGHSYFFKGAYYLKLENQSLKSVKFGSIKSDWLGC


Tests used:
[1] = test system: keratinocytes; test: Keratinocyte migration, Boyden chambers; format: cell-based; details: for inhibition of keratinocyte migration, dose dependence: Boyden chamber and scratch assays
Experimental: Compounds 1 and 2 were used to examine the functional effects of processing by BMP-1 related proteins on keratinocyte migration. […] Keratinocytes were analyzed for migration in Boyden chambers in the presence of increasing amounts of the inhibitors. […] (Koivunen et al. (1999) Nature Biotechnology 17:768-774.)

[2] = test system: cultured cells; test: Toxicity to cultured cells; format: cell-based; details: for toxicity to cultured cells at 100 times inhibitory levels: 100 times the concentration which inhibited BMP-1 activity; for toxic effect on cells: cell culture
[3] = biological target: T1, MMP-1; test: Inhibition of MMP-1 activity; format: biochemical
[4] = biological target: MMP-9 (Homo sapiens, UniProt P14780); test: Inhibition of MMP-9 activity; format: biochemical
MMP-9, sequence (P14780 94-707, species assumed): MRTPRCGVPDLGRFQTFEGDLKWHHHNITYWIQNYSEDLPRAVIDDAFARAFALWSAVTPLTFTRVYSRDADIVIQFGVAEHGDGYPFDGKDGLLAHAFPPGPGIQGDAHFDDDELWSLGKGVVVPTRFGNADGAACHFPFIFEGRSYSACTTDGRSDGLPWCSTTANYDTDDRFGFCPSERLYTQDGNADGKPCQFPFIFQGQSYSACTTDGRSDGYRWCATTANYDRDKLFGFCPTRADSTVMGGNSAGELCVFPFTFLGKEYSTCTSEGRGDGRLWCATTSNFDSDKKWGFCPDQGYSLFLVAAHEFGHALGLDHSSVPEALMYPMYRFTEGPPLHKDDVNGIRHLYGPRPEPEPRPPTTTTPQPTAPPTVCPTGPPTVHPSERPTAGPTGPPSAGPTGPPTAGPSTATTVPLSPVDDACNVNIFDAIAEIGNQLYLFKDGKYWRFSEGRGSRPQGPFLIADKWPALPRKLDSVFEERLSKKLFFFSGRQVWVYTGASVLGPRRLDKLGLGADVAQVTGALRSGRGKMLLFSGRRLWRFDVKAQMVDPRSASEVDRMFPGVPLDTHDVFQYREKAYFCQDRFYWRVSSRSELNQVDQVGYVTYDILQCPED

[5] = biological target: T2, BMP-1; test: Inhibition of BMP-1 activity, enzyme-based assays of collagen proteolysis; format: biochemical
[6] = test system: squamous carcinoma cells; test: Migration of squamous carcinoma cells (general statement); format: cell-based
[7] = biological target: T3, MMP-2; test: Inhibition of MMP-2 activity; format: biochemical
[8] = biological target: MT1-MMP (Homo sapiens, UniProt P50281); test: Inhibition of MT1-MMP activity; format: biochemical
[9] = biological target: unprocessed human laminin 5 (α3 chain of 200 kDa, β3 chain of 140 kDa, γ2 chain of 155 kDa) (UniProt Q16787)
unprocessed human laminin 5 (α3 chain of 200 kDa, β3 chain of 140 kDa, γ2 chain of 155 kDa), sequence (Q16787 whole entry, looked up): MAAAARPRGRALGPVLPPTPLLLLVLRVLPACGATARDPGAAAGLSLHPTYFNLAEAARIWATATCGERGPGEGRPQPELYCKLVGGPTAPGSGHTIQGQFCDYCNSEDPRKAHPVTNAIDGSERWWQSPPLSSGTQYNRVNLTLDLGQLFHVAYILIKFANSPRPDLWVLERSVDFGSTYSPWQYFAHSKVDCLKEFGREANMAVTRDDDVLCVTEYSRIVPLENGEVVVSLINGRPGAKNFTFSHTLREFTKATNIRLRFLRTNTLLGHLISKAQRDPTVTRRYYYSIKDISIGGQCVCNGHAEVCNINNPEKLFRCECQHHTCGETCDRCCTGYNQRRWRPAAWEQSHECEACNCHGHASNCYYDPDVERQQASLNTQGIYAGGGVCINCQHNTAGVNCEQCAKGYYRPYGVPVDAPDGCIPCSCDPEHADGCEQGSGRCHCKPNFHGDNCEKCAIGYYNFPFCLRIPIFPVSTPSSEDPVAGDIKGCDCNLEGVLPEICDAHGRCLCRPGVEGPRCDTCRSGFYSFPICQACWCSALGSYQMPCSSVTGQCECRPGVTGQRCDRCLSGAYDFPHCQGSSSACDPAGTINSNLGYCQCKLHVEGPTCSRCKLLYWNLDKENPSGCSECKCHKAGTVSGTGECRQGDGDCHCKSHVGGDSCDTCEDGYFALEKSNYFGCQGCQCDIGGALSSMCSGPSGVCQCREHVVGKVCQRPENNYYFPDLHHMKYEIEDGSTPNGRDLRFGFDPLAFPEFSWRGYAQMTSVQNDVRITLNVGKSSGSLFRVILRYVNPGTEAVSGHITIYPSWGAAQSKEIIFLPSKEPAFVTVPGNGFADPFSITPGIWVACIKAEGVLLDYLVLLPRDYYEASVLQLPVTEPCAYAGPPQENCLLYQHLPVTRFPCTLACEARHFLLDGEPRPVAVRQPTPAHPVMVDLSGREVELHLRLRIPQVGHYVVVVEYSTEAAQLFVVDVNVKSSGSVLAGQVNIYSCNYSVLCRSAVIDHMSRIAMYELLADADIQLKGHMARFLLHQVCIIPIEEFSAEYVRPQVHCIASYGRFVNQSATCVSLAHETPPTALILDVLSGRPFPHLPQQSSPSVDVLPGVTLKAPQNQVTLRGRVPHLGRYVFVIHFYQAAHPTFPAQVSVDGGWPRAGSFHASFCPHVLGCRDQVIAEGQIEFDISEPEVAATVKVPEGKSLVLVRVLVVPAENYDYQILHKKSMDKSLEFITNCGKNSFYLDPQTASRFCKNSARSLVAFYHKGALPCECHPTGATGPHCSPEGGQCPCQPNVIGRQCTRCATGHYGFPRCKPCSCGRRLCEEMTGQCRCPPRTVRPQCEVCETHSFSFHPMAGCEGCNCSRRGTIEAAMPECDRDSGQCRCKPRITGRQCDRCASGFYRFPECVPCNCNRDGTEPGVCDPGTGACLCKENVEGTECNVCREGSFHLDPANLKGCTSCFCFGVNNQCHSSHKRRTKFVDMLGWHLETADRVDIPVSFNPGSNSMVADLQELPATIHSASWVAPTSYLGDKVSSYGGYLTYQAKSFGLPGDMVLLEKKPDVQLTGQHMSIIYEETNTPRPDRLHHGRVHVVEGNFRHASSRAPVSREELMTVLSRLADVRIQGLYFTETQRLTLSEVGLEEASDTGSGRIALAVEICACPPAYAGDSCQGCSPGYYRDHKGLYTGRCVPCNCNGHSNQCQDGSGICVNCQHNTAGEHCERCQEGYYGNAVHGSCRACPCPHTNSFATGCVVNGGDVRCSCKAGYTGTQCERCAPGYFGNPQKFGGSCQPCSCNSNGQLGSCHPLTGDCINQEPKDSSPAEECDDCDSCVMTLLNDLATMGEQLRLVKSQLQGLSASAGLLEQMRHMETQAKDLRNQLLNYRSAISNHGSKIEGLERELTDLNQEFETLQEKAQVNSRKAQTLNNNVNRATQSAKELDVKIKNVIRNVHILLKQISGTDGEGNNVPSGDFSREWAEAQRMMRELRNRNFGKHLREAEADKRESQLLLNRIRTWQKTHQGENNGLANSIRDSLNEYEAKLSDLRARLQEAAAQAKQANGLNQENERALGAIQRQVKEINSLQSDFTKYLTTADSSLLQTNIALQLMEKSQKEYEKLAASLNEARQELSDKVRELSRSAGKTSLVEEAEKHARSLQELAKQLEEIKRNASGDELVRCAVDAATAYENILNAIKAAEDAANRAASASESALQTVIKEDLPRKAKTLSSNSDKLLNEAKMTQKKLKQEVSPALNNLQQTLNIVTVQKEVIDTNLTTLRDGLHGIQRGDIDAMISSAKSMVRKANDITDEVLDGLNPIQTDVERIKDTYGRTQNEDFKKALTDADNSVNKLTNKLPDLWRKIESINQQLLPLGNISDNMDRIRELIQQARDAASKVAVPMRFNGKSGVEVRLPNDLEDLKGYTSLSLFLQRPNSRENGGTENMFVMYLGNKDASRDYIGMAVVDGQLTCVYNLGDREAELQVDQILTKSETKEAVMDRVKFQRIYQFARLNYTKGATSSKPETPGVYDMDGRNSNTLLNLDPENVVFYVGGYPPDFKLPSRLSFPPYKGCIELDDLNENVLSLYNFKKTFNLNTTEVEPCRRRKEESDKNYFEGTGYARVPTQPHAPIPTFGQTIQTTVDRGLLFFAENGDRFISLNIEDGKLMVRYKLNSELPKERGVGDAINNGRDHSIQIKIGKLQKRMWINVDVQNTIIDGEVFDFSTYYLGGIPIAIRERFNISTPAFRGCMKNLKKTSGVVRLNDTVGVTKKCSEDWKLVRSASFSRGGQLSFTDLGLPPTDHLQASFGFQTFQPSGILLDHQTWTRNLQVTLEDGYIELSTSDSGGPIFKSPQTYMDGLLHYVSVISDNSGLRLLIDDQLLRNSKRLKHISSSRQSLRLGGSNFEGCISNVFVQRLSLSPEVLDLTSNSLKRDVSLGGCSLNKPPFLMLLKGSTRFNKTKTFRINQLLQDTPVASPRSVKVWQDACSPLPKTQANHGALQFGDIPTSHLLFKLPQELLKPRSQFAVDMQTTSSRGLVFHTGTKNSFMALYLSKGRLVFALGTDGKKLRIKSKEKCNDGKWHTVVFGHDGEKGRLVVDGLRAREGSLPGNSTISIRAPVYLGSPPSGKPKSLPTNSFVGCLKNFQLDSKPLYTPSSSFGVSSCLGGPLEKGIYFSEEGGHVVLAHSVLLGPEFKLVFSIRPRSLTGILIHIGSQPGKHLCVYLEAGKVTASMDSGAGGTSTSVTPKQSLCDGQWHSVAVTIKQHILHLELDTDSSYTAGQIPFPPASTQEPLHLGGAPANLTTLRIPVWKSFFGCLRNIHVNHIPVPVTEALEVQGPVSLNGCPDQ

[10] = biological target: unprocessed human laminin 5 (α3 chain of 200 kDa, β3 chain of 140 kDa, γ2 chain of 155 kDa), Q16787
unprocessed human laminin 5 (α3 chain of 200 kDa, β3 chain of 140 kDa, γ2 chain of 155 kDa), Q16787, sequence (Q16787 whole entry, looked up): as above

Molecule | inhibition of keratinocyte migration [1] | inhibition of keratinocyte migration, dose dependence [1] | toxicity to cultured cells at 100 times inhibitory levels [2] | toxic effect on cells [2] | inhibition of activity of MMP-1 [3] | inhibition of activity of MMP-9 [4] | inhibition of BMP-1 activity [5] | inhibition of migration of squamous carcinoma cells [6] | inhibition of activity of MMP-2 [7] | inhibition of activity of MT1-MMP [8] | cleavage of the α3 chain of laminin 5 (matrix digestion, western blot) [10] | cleavage of the γ2 chain of laminin 5 (matrix digestion, western blot) [10] | further results
O=C(CCCC1C(=O)N(C23CC4CC(CC(C4)C2)C3)C(=O)N1Cc1ccccn1)NO (stereo not shown) [Compound 1] | potently inhibit | inhibition of KC migration in a dose-dependent manner | nontoxic | nontoxic; also recorded: no toxic effect on cells | no inhibition | no inhibition | showed inhibition of BMP-1 activity | potently inhibit | no inhibition | no inhibition |  |  | dose required to achieve nearly complete inhibition of migration ([1]; Boyden chambers): 23 µM; inhibition of migration of keratinocytes, dose dependence ([1]; Boyden chambers, 0, 10, 23 μM): dose dependent
COc1ccc(CCN(CCC(=O)NO)S(=O)(=O)c2ccc(C(N)=NO)cc2)cc1 [Compound 3] | potently inhibit | inhibition of KC migration in a dose-dependent manner | nontoxic | low cytotoxicity; also recorded: no toxic effect on cells | no inhibition | no inhibition | showed inhibition of BMP-1 activity | potently inhibit | no inhibition | no inhibition |  |  | potency of BMP-1 inhibition relative to the other compounds [5]: slightly less potent
human mammalian tolloid (mTld) |  |  |  |  |  |  |  |  |  |  |  |  | cleavage of the α3 chain of laminin 5 (matrix digestion, western blot) [9]: BMP-1, mTld, mTll-1, and mTLL-2 all cleaved the α3 chain of laminin 5
human mammalian tolloid-like-1 (mTll-1) (protein) AATSRTERIWPGGVIPYVIGGNFTGSQRAMFKQAMRHWEKHTCVTFIERSDEESYIVFTYRPCGCCSYVGRRGNGPQAISIGKNCDKFGIVVHELGHVIGFWHEHTRPDRDNHVTIIRENIQPGQEYNFLKMEPGEVNSLGERYDFDSIMHYARNTFSRGMFLDTILPSRDDNGIRPAIGQRTRLSKGDIAQARKLYRCPACGETLQESNGNLSSPGFPNGYPSYTHCIWRVSVTPGEKIVLNFTTMDLYKSSLCWYDYIEVRDGYWRKSPLLGRFCGDKLPEVLTSTDSRMWIEFRSSSNWVGKGFAAVYEAICGGEIRKNEGQIQSPNYPDDYRPMKECVWKITVSESYHVGLTFQSFEIERHDNCAYDYLEVRDGTSENSPLIGRFCGYDKPEDIRSTSNTLWMKFVSDGTVNKAGFAANFFKEEDECAKPDRGGCEQRCLNTLGSYQCACEPGYELGPDRRSCEAACGGLLTKLNGTITTPGWPKEYPPNKNCVWQVVAPTQYRISVKFEFFELEGNEVCKYDYVEIWSGLSSESKLHGKFCGAEVPEVITSQFNNMRIEFKSDNTVSKKGFKAHFFSDKDECSKDNGGCQHECVNTMGSYMCQCRNGFVLHDNKHDCKEAECEQKIHSPSGLITSPNWPDKYPSRKECTWEISATPGHRIKLAFSEFEIEQHQECAYDHLEVFDGETEKSPILGRLCGNKIPDPLVATGNKMFVRFVSDASVQRKGFQATHSTECGGRLKAESKPRDLYSHAQFGDNNYPGQVDCEWLLVSERGSRLELSFQTFEVEEEADCGYDYVELFDGLDSTAVGLGRFCGSGPPEEIYSIGDSVLIHFHTDDTINKKGFHIRYKSIRYPDTTHTKK |  |  |  |  |  |  |  |  |  |  | BMP-1, mTld, mTll-1, and mTLL-2 all cleaved the α3 chain of laminin 5 |  | 
human BMP-1 (bone morphogenetic protein-1) (protein) AATSRPERVWPDGVIPFVIGGNFTGSQRAVFRQAMRHWEKHTCVTFLERTDEDSYIVFTYRPCGCCSYVGRRGGGPQAISIGKNCDKFGIVVHELGHVVGFWHEHTRPDRDRHVSIVRENIQPGQEYNFLKMEPQEVESLGETYDFDSIMHYARNTFSRGIFLDTIVPKYEVNGVKPPIGQRTRLSKGDIAQARKLYKCPACGETLQDSTGNFSSPEYPNGYSAHMHCVWRISVTPGEKIILNFTSLDLYRSRLCWYDYVEVRDGFWRKAPLRGRFCGSKLPEPIVSTDSRLWVEFRSSSNWVGKGFFAVYEAICGGDVKKDYGHIQSPNYPDDYRPSKVCIWRIQVSEGFHVGLTFQSFEIERHDSCAYDYLEVRDGHSESSTLIGRYCGYEKPDDIKSTSSRLWLKFVSDGSINKAGFAVNFFKEVDECSRPNRGGCEQRCLNTLGSYKCSCDPGYELAPDKRRCEAACGGFLTKLNGSITSPGWPKEYPPNKNCIWQLVAPTQYRISLQFDFFETEGNDVCKYDFVEVRSGLTADSKLHGKFCGSEKPEVITSQYNNMRVEFKSDNTVSKKGFKAHFFSEKRPALQPPRGRPHQLKFRVQKRNRTPQ |  |  |  |  |  |  |  |  |  |  | BMP-1, mTld, mTll-1, and mTLL-2 all cleaved the α3 chain of laminin 5 | BMP-1 and mTLL-2 cleaved the γ2 chain of laminin 5 | processing of the laminin 5 α3 chain (about 1 µg laminin 5 with 30 ng/ml BMP-1, 16 hours at 37° C., western blot) [10]: laminin α3 chain was completely processed from 200 kDa to 165 kDa by BMP-1
human mammalian tolloid-like-2 (mTll-2) (protein) ATTSRTERIWPGGVIPYVIGGNFTGSQRAIFKQAMRHWEKHTCVTFIERTDEESFIVFSYRTCGCCSYVGRRGGGPQAISIGKNCDKFGIVAHELGHVVGFWHEHTRPDRDQHVTIIRENIQPGQEYNFLKMEAGEVSSLGETYDFDSIMHYARNTFSRGVFLDTILPRQDDNGVRPTIGQRVRLSQGDIAQARKLYKCPACGETLQDTTGNFSAPGFPNGYPSYSHCVWRISVTPGEKIVLNFTSMDLFKSRLCWYDYVEVRDGYWRKAPLLGRFCGDKIPEPLVSTDSRLWVEFRSSSNILGKGFFAAYEATCGGDMNKDAGQIQSPNYPDDYRPSKECVWRITVSEGFHVGLTFQAFEIERHDSCAYDYLEVRDGPTEESALIGHFCGYEKPEDVKSSSNRLWMKFVSDGSINKAGFAANFFKEVDECSWPDHGGCEHRCVNTLGSYKCACDPGYELAADKKMCEVACGGFITKLNGTITSPGWPKEYPTNKNCVWQVVAPAQYRISLQFEVFELEGNDVCKYDFVEVRSGLSPDAKLHGRFCGSETPEVITSQSNNMRVEFKSDNTVSKRGFRAHFFSDKDECAKDNGGCQHECVNTFGSYLCRCRNGYWLHENGHDCKEAGCAHKISSVEGTLASPNWPDKYPSRRECTWNISSTAGHRVKLTFNEFEIEQHQECAYDHLEMYDGPDSLAPILGRFCGSKKPDPTVASGSSMFLRFYSDASVQRKGFQAVHSTECGGRLKAEVQTKELYSHAQFGDNNYPSEARCDWVIVAEDGYGVELTFRTFEVEEEADCGYDYMEAYDGYDSSAPRLGRFCGSGPLEEIYSAGDSLMIRFRTDDTINKKGFHARYTSTKFQDALHMKK |  |  |  |  |  |  |  |  |  |  | BMP-1, mTld, mTll-1, and mTLL-2 all cleaved the α3 chain of laminin 5 | BMP-1 and mTLL-2 cleaved the γ2 chain of laminin 5 | cleavage activity toward the α3 chain and γ2 chain of laminin 5, compared with the other BMP-1 related proteins [10]: mTll-2 showed more potent cleavage activity toward the α3 chain and γ2 chain of laminin 5 compared to the other BMP-1 related proteins
